pIC50: −log10 of the molar value.
Molecular target: T1, human mineralocorticoid receptor (MR) (Homo sapiens, UniProt P08235)
T1 construct: expressed in transfected cells
T1 sequence (P08235 734-984 limits assumed): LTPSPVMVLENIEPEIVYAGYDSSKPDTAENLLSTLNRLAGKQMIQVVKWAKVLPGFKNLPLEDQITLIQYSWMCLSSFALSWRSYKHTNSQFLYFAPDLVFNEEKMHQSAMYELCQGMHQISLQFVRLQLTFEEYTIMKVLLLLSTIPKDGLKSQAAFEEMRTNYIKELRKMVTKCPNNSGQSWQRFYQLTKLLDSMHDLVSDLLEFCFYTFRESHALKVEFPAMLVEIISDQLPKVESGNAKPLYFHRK
Test: Cellular in vitro assay to determine the inhibitory MR activity (GAL4-MR chimera luciferase reporter in CHO K1 cells)
Assay type: cell-based
Details: GAL4-MR ligand-binding domain chimera in CHO K1 cells, agonist aldosterone
Description: 1. Cellular In Vitro Assay to Determine the Inhibitory MR Activity and MR Selectivity Compared with Other Steroid Hormone Receptors
Antagonists of the human mineralocorticoid receptor (MR) are identified, and the activity of the compounds described herein is quantified with the aid of a recombinant cell line. The cell is originally derived from a hamster ovary epithelial cell (Chinese Hamster Ovary, CHO K1, ATCC: American Type Culture Collection, VA 20108, USA).
An established chimera system in which the ligand-binding domains of human steroid hormone receptors are fused to the DNA-binding domain of the yeast transcription factor GAL4 is used in this CHO K1 cell line. The GAL4-steroid hormone receptor chimeras produced in this way are cotransfected and stably expressed with a reporter construct in the CHO cells.
To generate the GAL4-steroid hormone receptor chimeras, the GAL4 DNA binding domain (amino acids 1-147) from the vector pFC2-dbd (from Stratagene) is cloned with the PCR-amplified ligand-binding domains of the mineralocorticoid receptor (MR, amino acids 734-985), of the glucocorticoid receptor (GR, amino acids 443-777), of the progesterone receptor (PR, amino acids 680-933) and of the androgen receptor (AR, amino acids 667-919) into the vector pIRES2 (from Clontech). The reporter construct, which comprises five copies of the GAL4 binding site upstream of a thymidine kinase promoter, leads to expression of firefly-luciferase (Photinus pyralis) after activation and binding of the GAL4-steroid hormone receptor chimeras by the respective specific agonists aldosterone (MR), dexamethasone (GR), progesterone (PR) and dihydrotestosterone (AR).
The MR, GR, PR and AR cells are plated out in medium (Optimem, 2.5% FCS, 2 mM glutamine, 10 mM HEPES) in 96- (or 384- or 1536-) well microtiter plates on the day before the assay and are kept in a cell incubator (96% humidity, 5% v/v CO2, 37° C.). On the day of the assay, the substances to be tested are taken up in the abovementioned medium and added to the cells. About 10 to 30 minutes after addition of the test substances, the respective specific agonists of the steroid hormone receptors are added. After a further incubation time of 5 to 6 hours, the luciferase activity is measured with the aid of a video camera. The measured relative light units as a function of the substance concentration result in a sigmoidal stimulation curve. The IC50 values are calculated with the aid of the GraphPad PRISM computer program (Version 3.02).

pIC50	Structure (SMILES)
7.12	CCOC(=O)C1=C(C)NC(C)=C(C(C)=O)C1c1cccc2c(=O)cc(C)oc12 (racemic) [Example 1 (Racemate), Ethyl 5-acetyl-2,6-dimethyl-4-(2-methyl-4-oxo-4H-chromen-8-yl)-1,4-dihydropyridine-3-carboxylate]
7.37	CCOC(=O)C1=C(C)NC(C)=C(C(C)=O)C1c1cccc2c(=O)cc(C)oc12 (single isomer, unassigned) [Example 1 (Enantiomer 2), Ethyl 5-acetyl-2,6-dimethyl-4-(2-methyl-4-oxo-4H-chromen-8-yl)-1,4-dihydropyridine-3-carboxylate]
7.66	CC(=O)C1=C(C)NC(C)=C(C(=O)OC2CCCC2)C1c1cccc2c(=O)cc(C)oc12 (stereo not shown) [Example 2, Cyclopentyl 5-acetyl-2,6-dimethyl-4-(2-methyl-4-oxo-4H-chromen-8-yl)-1,4-dihydropyridine-3-carboxylate]
7.41	CC(=O)C1=C(C)NC(C)=C(C(=O)OC(C)C)C1c1cccc2c(=O)cc(C)oc12 (stereo not shown) [Example 3, Isopropyl 5-acetyl-2,6-dimethyl-4-(2-methyl-4-oxo-4H-chromen-8-yl)-1,4-dihydropyridine-3-carboxylate]
6.63	COC(=O)C1=C(C)NC(C)=C(C(C)=O)C1c1cccc2c(=O)cc(C)oc12 (stereo not shown) [Example 4, Methyl 5-acetyl-2,6-dimethyl-4-(2-methyl-4-oxo-4H-chromen-8-yl)-1,4-dihydropyridine-3-carboxylate]
7.72	CC1=C(C(=O)OC(C)C)C(c2cccc3c(=O)cc(C)oc23)C(C(=O)C(F)(F)F)=C(C)N1 (stereo not shown) [Example 8, Isopropyl 2,6-dimethyl-4-(2-methyl-4-oxo-4H-chromen-8-yl)-5-(trifluoroacetyl)-1,4-dihydro-pyridine-3-carboxylate]
7.13	CCOC(=O)C1=C(C)NC(C)=C(C(C)=O)C1c1ccc(F)c2c(=O)cc(C)oc12 (stereo not shown) [Example 11, Ethyl 5-acetyl-2,6-dimethyl-4-(5-fluoro-2-methyl-4-oxo-4H-chromen-8-yl)-1,4-dihydropyridine-3-carboxylate]
6.98	CCOC(=O)C1=C(C)NC(C)=C(C(=O)c2ccccc2)C1c1cccc2c(=O)cc(C)oc12 (stereo not shown) [Example 14, Ethyl 5-benzoyl-2,6-dimethyl-4-(2-methyl-4-oxo-4H-chromen-8-yl)-1,4-dihydropyridine-3-carboxylate]
7.74	COC(=O)C1=C(C)NC(C)=C(C(=O)CC2CCC2)C1c1cccc2c(=O)cc(C)oc12 (stereo not shown) [Example 34, Methyl 5-(cyclobutylacetyl)-2,6-dimethyl-4-(2-methyl-4-oxo-4H-chromen-8-yl)-1,4-dihydro-pyridine-3-carboxylate]
7.57	COC(=O)C1=C(C)NC(C)=C(C(=O)c2ccc(C)cc2)C1c1cccc2c(=O)cc(C)oc12 (stereo not shown) [Example 37, Methyl 2,6-dimethyl-5-(4-methylbenzoyl)-4-(2-methyl-4-oxo-4H-chromen-8-yl)-1,4-dihydro-pyridine-3-carboxylate]

— patent publication US7989633B2, “4-Chromenonyl-1,4-dihydropyridines and their use” (Bayer Schering Pharma Aktiengesellschaft, priority 2005, dated 2011)
